Consider 25 compounds from US10752588B2 (The Broad Institute, Inc., priority 2014, dated 2020).

SMILES strings stand for the structures.

Experiment [1] addresses T1, human D2R/β-arrestin (Homo sapiens (Human), UniProt P14416). Description: β-Arrestin agonist assay (PathHunter). In kind it is cell-based. The conditions noted are these: CHO-K1 cell line expressing human D2R/β-arrestin. The procedure, abridged: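 Readout follows addition of Buffer:Emerald II:Galactor-Star reagent (19:5:1) to agonist-treated plates, measured as luminescence or fluorescence.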

Experiment [2] deals with T1, human D2R/β-arrestin. Description: Gi/cAMP agonist assay (Lance Ultra cAMP, Forskolin). It is filed as cell-based. The settings on record: CHO-K1 cell line expressing human D2R/β-arrestin. Put shortly:
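Read-out was Lance Ultra competitive TR-FRET (Eu-cAMP tracer plus ULight-anti-cAMP) following forskolin-induced cAMP production. Before forskolin stimulation, compounds were pin-transferred onto the seeded cells for 10 min at 37 °C.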

Experiment [3] concerns the target T1, human D2R/β-arrestin. Kind of experiment: cell-based. The conditions noted are these: β-arrestin Antagonist, CHO-K1 cell line expressing human D2R/β-arrestin; quinpirole used as agonist.
Experiment [4] deals with T1, human D2R/β-arrestin. Description: cell-based. The conditions noted are these: cAMP Antagonist, CHO-K1 cell line expressing human D2R/β-arrestin; quinpirole used as agonist.

By EC50 is commonly meant the concentration needed to bring the measured effect to its halfway point. A higher EC50 goes with lower potency in that assay. One may read the IC50 as the concentration needed to halve the response being measured.

T1 sequence (P14416 whole entry): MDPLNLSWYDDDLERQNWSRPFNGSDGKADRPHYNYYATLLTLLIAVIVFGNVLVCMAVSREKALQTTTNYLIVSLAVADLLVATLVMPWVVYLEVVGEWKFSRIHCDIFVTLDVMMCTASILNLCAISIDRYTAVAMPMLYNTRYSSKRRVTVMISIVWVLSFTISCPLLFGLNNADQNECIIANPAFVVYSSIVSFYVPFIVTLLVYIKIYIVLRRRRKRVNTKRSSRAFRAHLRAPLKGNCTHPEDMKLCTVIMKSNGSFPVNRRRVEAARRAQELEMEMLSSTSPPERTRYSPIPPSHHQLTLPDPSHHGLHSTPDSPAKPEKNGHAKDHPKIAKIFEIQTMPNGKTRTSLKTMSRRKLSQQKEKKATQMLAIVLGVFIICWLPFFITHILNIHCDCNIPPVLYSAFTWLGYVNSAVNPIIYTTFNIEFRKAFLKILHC

As for `O=C(NC(c1ccc(F)cc1)c1ccccc1F)C1CCN(CCOc2ccccc2)CC1` (stereo not shown) [Compound 49, N-((2-fluorophenyl)(4-fluorophenyl)methyl)-1-(2-phenoxyethyl)piperidine-4-carboxamide], the EC50 on human D2R/β-arrestin [1] was greater than 30 µM; at human D2R/β-arrestin [2], 1 to 10 µM. Moreover, the half-inhibitory concentration (IC50) on human D2R/β-arrestin [3] lay within 0.1 to 1 µM; on human D2R/β-arrestin [4] it was 1 to 10 µM.
In the case of `COc1cccc(C(NC(=O)C2CCN(CCOc3ccccc3)CC2)c2ccccc2F)c1` (stereo not shown) [Compound 50], the EC50 at human D2R/β-arrestin [1] is greater than 30 µM; on human D2R/β-arrestin [2], 0.1 to 1 µM. The 50% inhibitory concentration (IC50) on human D2R/β-arrestin [3] is 1 to 10 µM; at human D2R/β-arrestin [4], greater than 30 µM.
As for `O=C(NC(c1ccc(F)cc1)c1ccccn1)C1CCN(CCOc2ccc3ncsc3c2)CC1` (stereo not shown) [Compound 55, 1-(2-(benzo[d]thiazol-6-yloxy)ethyl)-N-((4-fluorophenyl)(pyridin-2-yl)methyl)piperidine-4-carboxamide], the EC50 at human D2R/β-arrestin [1] and on human D2R/β-arrestin [2] was greater than 30 µM in each case. For the same compound, the half-maximal inhibitory concentration (IC50) on human D2R/β-arrestin [3] and at human D2R/β-arrestin [4] was 1 to 10 µM in each case.
Consider `O=C(NC(c1ccc(F)cc1)c1ccccn1)C1CCN(CCOc2c(F)cccc2F)CC1` (stereo not shown) [Compound 56, 1-(2-(2,6-difluorophenoxy)ethyl)-N-((4-fluorophenyl)(pyridin-2-yl)methyl) piperidine-4-carboxamide], for which the EC50 at human D2R/β-arrestin [1] and on human D2R/β-arrestin [2] was greater than 30 µM in each case. For the same compound, the IC50 on human D2R/β-arrestin [3] and on human D2R/β-arrestin [4] was 0.1 to 1 µM in each case.
In the case of `O=C(NC(c1ccc(F)cc1)c1ccccn1)C1CCN(CCOc2cc(F)ccc2F)CC1` (stereo not shown) [Compound 57, 1-(2-(2,5-difluorophenoxy)ethyl)-N-((4-fluorophenyl)(pyridin-2-yl)methyl) piperidine-4-carboxamide], the half-maximal effective concentration (EC50) on human D2R/β-arrestin [1] was greater than 30 µM; on human D2R/β-arrestin [2] it was 0.1 to 1 µM. Moreover, the results for the IC50 on human D2R/β-arrestin [3] and at human D2R/β-arrestin [4] were 0.1 to 1 µM and greater than 30 µM, respectively.
Consider `CC(C)(COc1ccccc1)N1CCC(C(=O)NC(c2ccc(F)cc2)c2ccccn2)CC1` (stereo not shown) [Compound 58], for which the EC50 at human D2R/β-arrestin [1] and on human D2R/β-arrestin [2] was greater than 30 µM each time. In addition, the half-maximal inhibitory concentration (IC50) on human D2R/β-arrestin [3] and on human D2R/β-arrestin [4] was 10 to 30 µM throughout.
As to `O=C(NC(c1ccc(F)cc1)c1ccccn1)C1CCN(Cc2cc3ccccc3o2)CC1` (stereo not shown) [Compound 59], the EC50 at human D2R/β-arrestin [1] and at human D2R/β-arrestin [2] was greater than 30 µM in each case. For the same compound, the IC50 is greater than 30 µM on human D2R/β-arrestin [3] and 10 to 30 µM at human D2R/β-arrestin [4].
For the compound `O=C(NC(c1ccc(F)cc1)c1ccccn1)C1CCN(Cc2nc3ccccc3o2)CC1` (stereo not shown) [Compound 60, 1-(benzo[d]oxazol-2-ylmethyl)-N-((4-fluorophenyl)(pyridin-2-yl)methyl)piperidine-4-carboxamide], the concentration giving a half-maximal response (EC50) at human D2R/β-arrestin [1] and on human D2R/β-arrestin [2] was greater than 30 µM throughout. For the same compound, the concentration for half-maximal inhibition (IC50) on human D2R/β-arrestin [3] and at human D2R/β-arrestin [4] was greater than 30 µM each time.
In the case of `O=C(NC(c1ccc(F)cc1)c1ccccn1)C1CCN(CC2Cc3ccccc3C2)CC1` (stereo not shown) [Compound 61, 1-((2,3-dihydro-1H-inden-2-yl)methyl)-N-((4-fluorophenyl)(pyridin-2-yl)methyl)piperidine-4-carboxamide], the concentration for a half-maximal effect (EC50) on human D2R/β-arrestin [1] and at human D2R/β-arrestin [2] was greater than 30 µM in each case. For the same compound, the IC50 on human D2R/β-arrestin [3] and on human D2R/β-arrestin [4] was 10 to 30 µM each time.
Consider `O=C(NC(c1ccc(Cl)cc1)c1ccccn1)C1CCN(CCCOc2ccccc2)CC1` (stereo not shown) [Compound 62, N-((4-chlorophenyl)(pyridin-2-yl)methyl)-1-(3-phenoxypropyl)piperidine-4-carboxamide], for which the 50% effective concentration (EC50) on human D2R/β-arrestin [1] and on human D2R/β-arrestin [2] was greater than 30 µM in each case. The IC50 was in the range of 1 to 10 µM at human D2R/β-arrestin [3] and 0.1 to 1 µM on human D2R/β-arrestin [4].
Turning to `CN1CCC(C(=O)NC(c2ccc(Cl)cc2)c2ccccn2)CC1` (stereo not shown) [Compound 64, N-((4-chlorophenyl)(pyridin-2-yl)methyl)-1-methylpiperidine-4-carboxamide], the concentration for a half-maximal effect (EC50) at human D2R/β-arrestin [1] and at human D2R/β-arrestin [2] was greater than 30 µM in each case. In addition, the half-inhibitory concentration (IC50) is 10 to 30 µM at human D2R/β-arrestin [3] and 1 to 10 µM at human D2R/β-arrestin [4].
`COCCN1CCC(C(=O)NC(c2ccc(Cl)cc2)c2ccccn2)CC1` (stereo not shown) [Compound 65, N-((4-chlorophenyl)(pyridin-2-yl)methyl)-1-(2-methoxyethyl)piperidine-4-carboxamide]: the half-maximal effective concentration (EC50) at human D2R/β-arrestin [1] and at human D2R/β-arrestin [2] was greater than 30 µM each time. For the same compound, the half-maximal inhibitory concentration (IC50) is 10 to 30 µM on human D2R/β-arrestin [3] and 1 to 10 µM on human D2R/β-arrestin [4].
`O=C(NC(c1ccc(Cl)cc1)c1ccccn1)C1CCN(CCOc2c(F)cccc2F)CC1` (stereo not shown) [Compound 67, N-((4-chlorophenyl)(pyridin-2-yl)methyl)-1-(2-(2,6-difluorophenoxy)ethyl)piperidine-4-carboxamide]: the EC50 at human D2R/β-arrestin [1] and on human D2R/β-arrestin [2] was greater than 30 µM throughout. In addition, the half-inhibitory concentration (IC50) was 0.1 to 1 µM at human D2R/β-arrestin [3] and less than 0.1 µM at human D2R/β-arrestin [4].
On to `O=C(NC(c1ccc(Cl)cc1)c1ccccn1)C1CCN(CCOc2ccccc2OC(F)(F)F)CC1` (stereo not shown) [Compound 68, N-((4-chlorophenyl)(pyridin-2-yl)methyl)-1-(2-(2-(trifluoromethoxy)phenoxy)ethyl) piperidine-4-carboxamide], for which the EC50 at human D2R/β-arrestin [1] and at human D2R/β-arrestin [2] was greater than 30 µM throughout. Moreover, the IC50 at human D2R/β-arrestin [3] and on human D2R/β-arrestin [4] was less than 0.1 µM in each case.
Consider `CC1(C(=O)NC(c2ccc(F)cc2)c2ccccn2)CCN(CCOc2ccccc2)CC1` (stereo not shown) [Compound 69, N-((4-fluorophenyl)(pyridin-2-yl)methyl)-4-methyl-1-(2-phenoxyethyl)piperidine-4-carboxamide], for which the concentration for a half-maximal effect (EC50) on human D2R/β-arrestin [1] is 0.1 to 1 µM; on human D2R/β-arrestin [2] it was less than 0.1 µM. The results for the IC50 at human D2R/β-arrestin [3] and on human D2R/β-arrestin [4] were 0.1 to 1 µM and greater than 30 µM, respectively.
Consider `CC1(C(=O)NC(c2ccc(F)cc2)c2ccccn2)CCN(CCOc2ccccc2C(F)(F)F)CC1` (stereo not shown) [Compound 70, N-((4-fluorophenyl)(pyridin-2-yl)methyl)-4-methyl-1-(2-(2-(trifluoromethyl)phenoxy)ethyl) piperidine-4-carboxamide], for which the concentration for a half-maximal effect (EC50) on human D2R/β-arrestin [1] was greater than 30 µM; at human D2R/β-arrestin [2] it was 0.1 to 1 µM. The IC50 on human D2R/β-arrestin [3] and on human D2R/β-arrestin [4] was 0.1 to 1 µM in each case.
`CC1(C(=O)NC(c2ccc(F)cc2)c2ccccn2)CCN(CCOc2ccccc2F)CC1` (stereo not shown) [Compound 71, 1-(2-(2-fluorophenoxy)ethyl)-N-((4-fluorophenyl)(pyridin-2-yl)methyl)-4-methylpiperidine-4-carboxamide]: the EC50 on human D2R/β-arrestin [1] and at human D2R/β-arrestin [2] was less than 0.1 µM in each case. Further, the IC50 at human D2R/β-arrestin [3] is 0.1 to 1 µM; at human D2R/β-arrestin [4] it was greater than 30 µM.
Turning to `CN(CC1CCN(CCOc2ccccc2C(F)(F)F)CC1)C(c1ccc(Cl)cc1)c1ccccn1` (stereo not shown) [Compound 73], the EC50 at human D2R/β-arrestin [1] and at human D2R/β-arrestin [2] was greater than 30 µM in each case. The IC50 on human D2R/β-arrestin [3] and at human D2R/β-arrestin [4] was less than 0.1 µM throughout.
With `CN(CC1CCN(CCOc2ccccc2)CC1)C(c1ccc(F)cc1)c1ccccn1` (stereo not shown) [Compound 74, 1-(4-fluorophenyl)-N-methyl-N-((1-(2-phenoxyethyl)piperidin-4-yl)methyl)-1-(pyridin-2-yl)methanamine], the results for the half-maximal effective concentration (EC50) at human D2R/β-arrestin [1] and on human D2R/β-arrestin [2] were greater than 30 µM and less than 0.1 µM, respectively. Besides, the IC50 on human D2R/β-arrestin [3] and at human D2R/β-arrestin [4] was 0.1 to 1 µM each time.
Take `CN(CC1CCN(CCOc2ccccc2F)CC1)C(c1ccc(F)cc1)c1ccccn1` (stereo not shown) [Compound 75, N-((1-(2-(2-fluorophenoxy)ethyl)piperidin-4-yl)methyl)-1-(4-fluorophenyl)-N-methyl-1-(pyridin-2-yl)methanamine]: the EC50 at human D2R/β-arrestin [1] was greater than 30 µM; at human D2R/β-arrestin [2], less than 0.1 µM. Besides, the IC50 at human D2R/β-arrestin [3] and on human D2R/β-arrestin [4] was 0.1 to 1 µM each time.
In the case of `COc1cccc(C(c2ccccn2)N(C)CC2CCN(CCOc3ccccc3)CC2)c1` (stereo not shown) [Compound 76, 1-(3-methoxyphenyl)-N-methyl-N-((1-(2-phenoxyethyl)piperidin-4-yl)methyl)-1-(pyridin-2-yl)methanamine], the results for the concentration for a half-maximal effect (EC50) at human D2R/β-arrestin [1] and at human D2R/β-arrestin [2] were greater than 30 µM and less than 0.1 µM, respectively. For the same compound, the IC50 at human D2R/β-arrestin [3] lay in the range of 1 to 10 µM; on human D2R/β-arrestin [4], 10 to 30 µM.
The matching figures for `COc1cccc(C(c2ccccn2)N(C)CC2CCN(CCOc3ccccc3F)CC2)c1` (stereo not shown) [Compound 77, N-((1-(2-(2-fluorophenoxy)ethyl)piperidin-4-yl)methyl)-1-(3-methoxyphenyl)-N-methyl-1-(pyridin-2-yl)methanamine]: greater than 30 µM, less than 0.1 µM, 0.1 to 1 µM and 1 to 10 µM.
The matching figures for `Fc1ccc(C(NCC2CCN(CCOc3ccccc3)CC2)c2ccccn2)cc1` (stereo not shown) [Compound 78, 1-(4-fluorophenyl)-N-((1-(2-phenoxyethyl)piperidin-4-yl)methyl)-1-(pyridin-2-yl)methanamine]: greater than 30 µM, 0.1 to 1 µM, 1 to 10 µM and 1 to 10 µM.
The matching figures for `COc1cccc(C(NCC2CCN(CCOc3ccccc3)CC2)c2ccccn2)c1` (stereo not shown) [Compound 80, 1-(3-methoxyphenyl)-N-((1-(2-phenoxyethyl)piperidin-4-yl)methyl)-1-(pyridin-2-yl)methanamine]: greater than 30 µM, 0.1 to 1 µM, 1 to 10 µM and 1 to 10 µM.
`Fc1ccccc1C(NCC1CCN(CCOc2ccccc2)CC1)c1ccc(Cl)cc1` (stereo not shown) [Compound 81, 1-(4-chlorophenyl)-1-(2-fluorophenyl)-N-((1-(2-phenoxyethyl)piperidin-4-yl)methyl)methanamine]: the 50% effective concentration (EC50) on human D2R/β-arrestin [1] and at human D2R/β-arrestin [2] was greater than 30 µM each time. The IC50 at human D2R/β-arrestin [3] and at human D2R/β-arrestin [4] was 0.1 to 1 µM in each case.
